Test results published in ChEMBL document CHEMBL1201862, “PubChem BioAssay data set” (2004).
Active and inactive are the calls of the source.

Key:
[1] = molecular target: T1, Adenosylmethionine-8-amino-7-oxononanoate aminotransferase (Mycobacterium tuberculosis, UniProt P9WQ81); test: Mycobacterium tuberculosis BioA enzyme inhibitor Measured in Biochemical System Using Plate Reader - 2163-02_Inhibitor_Dose_CherryPick_Activity.; type: functional, Mycobacterium tuberculosis UT205
T1 sequence (P9WQ81 whole entry): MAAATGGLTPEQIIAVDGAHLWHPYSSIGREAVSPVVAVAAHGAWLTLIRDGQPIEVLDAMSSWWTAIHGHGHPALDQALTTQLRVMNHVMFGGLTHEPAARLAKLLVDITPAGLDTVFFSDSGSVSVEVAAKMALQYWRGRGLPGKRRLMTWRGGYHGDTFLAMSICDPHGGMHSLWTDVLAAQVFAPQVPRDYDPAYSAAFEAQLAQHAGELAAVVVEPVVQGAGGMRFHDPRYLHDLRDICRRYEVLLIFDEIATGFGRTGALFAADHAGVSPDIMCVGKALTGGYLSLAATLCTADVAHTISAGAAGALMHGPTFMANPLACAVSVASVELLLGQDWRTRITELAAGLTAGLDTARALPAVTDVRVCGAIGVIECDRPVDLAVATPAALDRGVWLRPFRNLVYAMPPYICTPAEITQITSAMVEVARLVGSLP

[2] = molecular target: T2, Heat shock factor protein 1 (Mus musculus, UniProt P38532); test: inhibition of MG132-induced HSE-luciferase signal, confirmation, cell-based, NIH3T3, luminescence, dose retest (AID 2382); type: functional;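 also: NIH3T3 fibroblasts with HSF1-driven luciferase reporter stressed by proteasome inhibitor MG132; luminescence from HSF1-driven luciferase expression after 8 hours of MG132 stress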
T2 sequence (P38532 whole entry): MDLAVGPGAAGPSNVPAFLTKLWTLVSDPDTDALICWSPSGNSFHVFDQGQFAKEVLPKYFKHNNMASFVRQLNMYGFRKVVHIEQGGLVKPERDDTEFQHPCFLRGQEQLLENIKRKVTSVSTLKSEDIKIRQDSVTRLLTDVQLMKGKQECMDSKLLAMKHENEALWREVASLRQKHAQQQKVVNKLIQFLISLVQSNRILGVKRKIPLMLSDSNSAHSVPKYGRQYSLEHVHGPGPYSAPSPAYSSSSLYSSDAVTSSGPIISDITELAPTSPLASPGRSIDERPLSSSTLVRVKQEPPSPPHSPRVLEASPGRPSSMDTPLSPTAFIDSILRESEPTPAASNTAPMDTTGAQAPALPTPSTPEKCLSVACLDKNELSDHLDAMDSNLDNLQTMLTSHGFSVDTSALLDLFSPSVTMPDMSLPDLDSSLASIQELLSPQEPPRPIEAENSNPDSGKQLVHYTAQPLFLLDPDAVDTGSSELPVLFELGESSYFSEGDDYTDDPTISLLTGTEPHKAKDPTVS

Coagulation factor XII = molecular target: T3, Coagulation factor XII (Homo sapiens, UniProt P00748); type: functional;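 also: activated factor XIIa alpha cleaving a fluorogenic AMC peptide substrate; inhibitor potency from loss of enzyme activity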
T3 sequence (P00748 whole entry): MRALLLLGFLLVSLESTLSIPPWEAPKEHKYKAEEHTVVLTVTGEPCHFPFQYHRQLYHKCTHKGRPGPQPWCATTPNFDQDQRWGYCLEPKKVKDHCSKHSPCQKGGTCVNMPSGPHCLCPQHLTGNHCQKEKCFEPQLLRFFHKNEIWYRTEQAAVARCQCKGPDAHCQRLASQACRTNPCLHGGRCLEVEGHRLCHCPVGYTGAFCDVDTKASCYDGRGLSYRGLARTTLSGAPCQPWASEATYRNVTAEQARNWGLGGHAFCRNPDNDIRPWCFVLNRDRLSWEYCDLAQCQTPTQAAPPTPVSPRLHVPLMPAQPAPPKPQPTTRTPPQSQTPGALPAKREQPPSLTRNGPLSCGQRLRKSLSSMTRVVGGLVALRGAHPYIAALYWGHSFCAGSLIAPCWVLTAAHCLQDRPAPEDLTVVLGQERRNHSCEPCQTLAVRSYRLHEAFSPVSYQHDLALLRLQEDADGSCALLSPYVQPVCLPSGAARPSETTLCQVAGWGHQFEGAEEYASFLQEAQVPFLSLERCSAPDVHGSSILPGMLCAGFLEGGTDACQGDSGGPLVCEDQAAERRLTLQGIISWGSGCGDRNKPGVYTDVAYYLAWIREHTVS

[3] = molecular target: T4, Long-chain-fatty-acid--AMP ligase FadD28 (Mycobacterium tuberculosis, UniProt P9WQ59); test: Fluorescence polarization aasay to screen for inhibitors that compete for the binding of FadD28 to a bisubstrate Measured in Biochemical System Using Plate Reader - 2147-01_Inhibitor_Dose_CherryPick_Activity.; type: functional, Mycobacterium tuberculosis H37Rv
T4 sequence (P9WQ59 whole entry): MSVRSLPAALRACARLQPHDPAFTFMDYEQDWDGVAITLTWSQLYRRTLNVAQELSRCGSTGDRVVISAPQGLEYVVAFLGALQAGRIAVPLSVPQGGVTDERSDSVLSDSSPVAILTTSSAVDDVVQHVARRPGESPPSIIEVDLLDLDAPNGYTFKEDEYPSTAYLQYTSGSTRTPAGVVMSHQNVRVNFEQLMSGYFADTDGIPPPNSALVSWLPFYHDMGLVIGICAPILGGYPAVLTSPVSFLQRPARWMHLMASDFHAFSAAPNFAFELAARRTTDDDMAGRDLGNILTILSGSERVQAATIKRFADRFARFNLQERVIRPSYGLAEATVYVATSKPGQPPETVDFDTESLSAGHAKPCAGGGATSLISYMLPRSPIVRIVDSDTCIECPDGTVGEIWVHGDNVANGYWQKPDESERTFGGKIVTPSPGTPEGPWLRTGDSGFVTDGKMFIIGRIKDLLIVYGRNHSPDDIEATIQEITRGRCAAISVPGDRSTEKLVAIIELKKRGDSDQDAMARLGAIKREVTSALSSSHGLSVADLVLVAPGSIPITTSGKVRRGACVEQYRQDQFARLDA

[4] = inhibitors of SNCA 5'UTR-driven reporter translation, confirmation, H4 neuroglioma cells, luminescence (AID 1988); type: functional, cell-based
[5] = Luminescence Cell-Based Dose Response HTS to Identify Inhibitors of 5'UTR Stem-Loop Driven Prion Protein mRNA Translation in H4 Neuroglioblastoma Cells. [Related pubchem assays: 1827 (Project Summary), 1813 (Primary HTS)]; type: functional
[6] = inhibitors of firefly luciferase expression or activity, dose response, H4 neuroglioma cells, luminescence (AID 1990); type: functional, cell-based
[7] = cytotoxicity in HEK-293T cells, dose response, cytotoxicity control for TCR NF-kB inhibitor project, luminescence, T-cell screen hits (AID 489026); type: functional, cell-based;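 also: cells exposed to compound about 14 hours before the viability readout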
BJ [8] = test: cytotoxicity toward BJ-TERT fibroblasts, dose response, cell-based, RAS-independent, luminescence (AID 1933); type: functional; details: Homo sapiens
Protein skinhead-1 = molecular target: T5, Protein skinhead-1 (Caenorhabditis elegans, UniProt P34707); type: functional
T5 sequence (P34707 whole entry): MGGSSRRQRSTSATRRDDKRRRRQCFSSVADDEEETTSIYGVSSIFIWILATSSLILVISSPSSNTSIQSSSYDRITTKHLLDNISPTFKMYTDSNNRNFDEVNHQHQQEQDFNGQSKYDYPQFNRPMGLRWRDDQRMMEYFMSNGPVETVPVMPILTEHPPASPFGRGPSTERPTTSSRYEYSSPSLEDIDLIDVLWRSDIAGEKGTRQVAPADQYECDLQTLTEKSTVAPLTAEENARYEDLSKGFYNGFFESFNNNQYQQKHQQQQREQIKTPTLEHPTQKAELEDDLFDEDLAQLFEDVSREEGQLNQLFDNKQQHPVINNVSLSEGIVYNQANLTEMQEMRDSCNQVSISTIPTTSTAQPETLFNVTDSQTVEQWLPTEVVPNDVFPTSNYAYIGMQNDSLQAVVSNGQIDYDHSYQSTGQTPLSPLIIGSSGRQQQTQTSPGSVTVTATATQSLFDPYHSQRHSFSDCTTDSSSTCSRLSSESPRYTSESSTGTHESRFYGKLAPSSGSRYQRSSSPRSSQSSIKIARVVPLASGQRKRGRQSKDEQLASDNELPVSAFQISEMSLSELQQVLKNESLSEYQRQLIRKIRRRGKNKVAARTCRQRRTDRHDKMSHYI

BJ [9] = test: cells; type: functional, cell-based; details: Homo sapiens
BJ [10] = test: cytotoxicity toward BJ-TERT-LT-ST fibroblasts, dose response, cell-based, RAS-independent, luminescence (AID 1935); type: functional; details: Homo sapiens;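 also: BJ fibroblasts immortalized with TERT plus LT and ST oncogenes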
[11] = cytotoxicity toward DRD oncogenic fibroblasts, dose response, cell-based, non-viral oncogenic, luminescence (AID 1934); type: functional; details: Homo sapiens
[12] = molecular target: T6, Hepatocyte nuclear factor 4-alpha (Homo sapiens, UniProt P41235); type: functional, cell-based;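 also: biochemical luminescence-based dose-response counterscreen measuring inhibition of HNF4 dimerization, run alongside a screen for blockers of ABHD5–perilipin-5 interaction; split luciferase complementation of HNF4 fusion proteins in cell lysate measuring dimerization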
T6 sequence (P41235 whole entry): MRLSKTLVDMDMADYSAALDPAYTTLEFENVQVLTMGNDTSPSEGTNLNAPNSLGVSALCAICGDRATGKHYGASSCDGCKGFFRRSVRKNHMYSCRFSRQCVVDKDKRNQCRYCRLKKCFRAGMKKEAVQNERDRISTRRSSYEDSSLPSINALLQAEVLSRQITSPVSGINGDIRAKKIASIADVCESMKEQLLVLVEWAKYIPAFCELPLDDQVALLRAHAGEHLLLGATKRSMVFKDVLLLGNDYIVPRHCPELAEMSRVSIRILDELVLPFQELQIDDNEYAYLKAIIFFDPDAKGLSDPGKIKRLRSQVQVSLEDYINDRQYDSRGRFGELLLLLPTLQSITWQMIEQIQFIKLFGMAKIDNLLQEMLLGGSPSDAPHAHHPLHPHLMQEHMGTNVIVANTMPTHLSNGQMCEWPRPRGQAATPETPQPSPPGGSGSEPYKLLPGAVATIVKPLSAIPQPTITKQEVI

[13] = molecular target: T7, Carboxy-terminal domain RNA polymerase II polypeptide A small phosphatase 1 (Homo sapiens, UniProt Q9GZU7); test: inhibitors of CTDSP1, concentration-response testing, biochemical assay, absorbance-based, actives from ultra-high-throughput screening (AID 540297); type: functional
T7 sequence (Q9GZU7 whole entry): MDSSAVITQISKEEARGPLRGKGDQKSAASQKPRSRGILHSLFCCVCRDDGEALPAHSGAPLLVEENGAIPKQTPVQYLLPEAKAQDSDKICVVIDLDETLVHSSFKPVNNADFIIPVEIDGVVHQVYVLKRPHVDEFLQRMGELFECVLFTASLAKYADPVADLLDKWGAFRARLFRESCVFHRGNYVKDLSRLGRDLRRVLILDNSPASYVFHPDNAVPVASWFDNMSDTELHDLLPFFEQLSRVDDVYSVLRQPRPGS

Genome polyprotein = Genome polyprotein (dengue virus type 2, UniProt P29990); test: Dengue-2 NS5 methyltransferase inhibitors, primary screen, biochemical, confirmation dose response (AID 588689); type: functional
Chain of Genome polyprotein (P29990 2492-3391 limits assumed): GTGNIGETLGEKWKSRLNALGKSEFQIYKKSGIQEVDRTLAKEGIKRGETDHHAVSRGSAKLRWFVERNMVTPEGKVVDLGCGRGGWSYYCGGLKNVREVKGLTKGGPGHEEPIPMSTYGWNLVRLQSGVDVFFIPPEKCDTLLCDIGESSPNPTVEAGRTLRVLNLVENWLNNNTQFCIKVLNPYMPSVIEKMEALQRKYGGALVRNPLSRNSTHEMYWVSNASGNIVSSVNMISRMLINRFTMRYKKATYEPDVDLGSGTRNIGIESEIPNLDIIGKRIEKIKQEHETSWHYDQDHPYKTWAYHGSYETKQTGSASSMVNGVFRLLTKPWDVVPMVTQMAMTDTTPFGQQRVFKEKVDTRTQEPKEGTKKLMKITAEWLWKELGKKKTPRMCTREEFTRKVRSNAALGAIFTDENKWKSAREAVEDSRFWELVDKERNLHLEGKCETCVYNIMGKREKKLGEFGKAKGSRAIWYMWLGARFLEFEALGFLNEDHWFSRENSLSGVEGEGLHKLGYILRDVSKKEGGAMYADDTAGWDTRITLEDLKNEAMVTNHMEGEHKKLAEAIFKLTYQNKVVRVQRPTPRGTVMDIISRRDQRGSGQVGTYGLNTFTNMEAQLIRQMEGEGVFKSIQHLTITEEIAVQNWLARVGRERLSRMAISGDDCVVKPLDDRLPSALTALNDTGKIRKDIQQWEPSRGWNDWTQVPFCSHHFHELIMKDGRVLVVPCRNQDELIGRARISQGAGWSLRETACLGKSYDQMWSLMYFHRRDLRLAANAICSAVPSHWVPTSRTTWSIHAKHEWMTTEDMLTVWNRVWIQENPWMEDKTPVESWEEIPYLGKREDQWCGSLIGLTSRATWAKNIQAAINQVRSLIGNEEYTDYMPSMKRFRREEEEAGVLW

[14] = molecular target: T8, DNA repair protein RAD52 homolog (Homo sapiens, UniProt P43351); type: functional, biochemical
T8 sequence (P43351 whole entry): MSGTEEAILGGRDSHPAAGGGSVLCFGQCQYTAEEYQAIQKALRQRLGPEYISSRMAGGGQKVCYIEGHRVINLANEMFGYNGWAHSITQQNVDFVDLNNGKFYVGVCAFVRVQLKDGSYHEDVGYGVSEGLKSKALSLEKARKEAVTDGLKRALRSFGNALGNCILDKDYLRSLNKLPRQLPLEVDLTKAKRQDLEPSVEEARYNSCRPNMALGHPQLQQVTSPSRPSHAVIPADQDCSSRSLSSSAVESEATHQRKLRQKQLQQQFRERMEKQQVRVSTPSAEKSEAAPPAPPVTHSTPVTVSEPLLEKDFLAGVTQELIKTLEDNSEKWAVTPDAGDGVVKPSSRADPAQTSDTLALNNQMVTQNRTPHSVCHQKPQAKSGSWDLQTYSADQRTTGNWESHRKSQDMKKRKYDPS

[15] = A cytotoxicity screen of small molecule inhibitors of the PhoP region in Salmonella typhi identified in the primary screen. [Related pubchem assays: 1850, 1864, 1985 ]; type: functional

O=C(Nc1ccccc1)N1CCN(Cc2ccc3c(c2)OCO3)CC1
AC50 [1]: 2.63 µM (active)

CC1=C(C(=O)Nc2ccc(C)cc2)C(c2ccc(C)o2)C2=C(O)CC(C)(C)CC2=N1 (stereo not drawn)
EC50 [2]: > 195 µM (not active) | IC50 (Coagulation factor XII): > 50 µM (inactive)

CN(C)c1ccc(/C=C2/C(=O)N(CCc3ccc(F)cc3)C(=O)N=C2O)cc1
AC50 [3]: 23.4 µM (active)

Cc1nc(Nc2nc(O)c3c(n2)CCC3)nc2ccccc12
EC50 [4]: 9.61 µM (active) | EC50 [5]: > 120 µM (not active) | EC50 [6]: > 120 µM (not active) | IC50 [7]: > 80 µM (inactive)

CCc1c(C)nc2ncnn2c1Nc1ccc(C#N)c(Cl)c1
AC50 [1]: 10.5 µM (active)

O=C(c1ccc(Cl)cc1)c1cc([N+](=O)[O-])ccc1N1CCOCC1
EC50 (BJ [8]): 1.51 µM (active) | IC50 (Protein skinhead-1): 56.9 µM (inactive) | EC50 (BJ [9]): 19 µM (active) | IC50 [7]: > 80 µM (inactive) | EC50 (BJ [10]): 1.19 µM (inconclusive) | EC50 [11]: 1.17 µM (active)

Oc1c(C(c2ccccc2)N2CCCCC2)ccc2ccccc12 (stereo not drawn)
IC50 [12]: 0.828 µM (active)

CCOc1cc(/C=N/NC2=NC(=O)C(CC(=O)O)S2)ccc1OCc1ccc(Cl)cc1 (stereo not drawn)
IC50 [13]: 7.12 µM (active) | IC50 (Genome polyprotein): 47.9 µM (active)

CN(C)CCNC(=O)c1cccc2nc3c(ccc4ccccc43)nc12
AC50 [14]: 0.501 µM (active)

Cc1cc(Cl)c(S(=O)(=O)NC(C(=O)O)c2ccccc2)cc1OCC(N)=O (stereo not drawn)
IC50 [13]: 12.9 µM (active)

CC(C)(C)NC(=O)C(c1ccnc2ccccc12)n1c(=O)c(-c2ccco2)nc2ccccc21 (stereo not drawn)
IC50 [12]: 3.18 µM (active)

Cc1c(C)n(C)c2ccc(C(=O)NCc3cccs3)cc12
EC50 [15]: > 50 µM (active) | AC50 [3]: 56.8 µM (active)

CCN(CC)CCCN(C(=O)c1ccc(OC)cc1)c1nc(-c2ccc(OC)cc2)cs1
AC50 [14]: 18.1 µM (active)

O=C(O)c1ccc(COc2ccccc2/C=C2\NC(=O)N(Cc3ccc(F)cc3)C2=O)cc1
IC50 [13]: 6.42 µM (active)

Cc1cccc(-c2ccc3c(c2)C2CC3CCN2)c1 (stereo not drawn)
AC50 [1]: 4.64 µM (active)

O=C(NCc1ccccc1)C(c1cccc2ccccc12)n1c(=O)c(-c2ccco2)nc2ccccc21 (stereo not drawn)
IC50 [12]: 2.77 µM (active)

COc1ccccc1NC(=O)Cn1cnc2c(oc3nc4c(cc32)CCCC4)c1=O
AC50 [3]: 77.8 µM (active)
